Test [1] has as its target intracellular GCN2 (phosphorylation of the GCN2 substrate eIF2α) (Homo sapiens, UniProt Q9P2K8). Put plainly: GCN2 cellular inhibition assay (AlphaScreen SureFire P-eIF2α Ser51, borrelidin-treated U2OS cells). Type of test: cell-based. Put shortly:
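Borrelidin at 10 μM is added to U2OS cells immediately after compound (4-fold dilution series, 40 μM top final) for 1 h at 37 °C. Phosphorylated eIF2α Ser51 in lysates is quantified by AlphaScreen and expressed as percent inhibition against borrelidin-stimulated controls.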
(In Alpha technology, singlet oxygen from a donor bead excites a nearby acceptor bead.)

The target in another test is GCN2 kinase (Homo sapiens, UniProt Q9P2K8). Description: GCN2 enzyme inhibition assay (Transcreener ADP2 fluorescence polarization). As to conditions: 280 μM ATP; for IC50: compounds of Formula II. The class given is biochemical. Put shortly: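 FP detection of ADP (antibody plus Alexa633 tracer) after a 1 h, 25 °C kinase reaction. Enzyme 4 nM, ATP 280 μM, (RS)7 peptide 200 μM, Tris pH 7.5 buffer with MgCl2 and DTT. Percent inhibition fitted by non-linear tight-binding algorithm for IC50 and Ki(app).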
For orientation: Polarisation of emitted light reports the rotation of a fluorescent probe.

The mark [2] stands for this setting: compounds of Formula II, biomarker assay, phosphorylated eIF2α Ser51 in borrelidin-treated U2OS cells.
Where [3] appears, read: compounds of Formula III, U2OS cells, 10 μM borrelidin, 1 h, read-out: GCN2 Biomarker (IC50).
Setting [4] is: compounds of Formula III, 4 nM GCN2 kinase.
Where [5] appears, read: compounds of Formula IV, biomarker assay, phosphorylated eIF2α Ser51 in borrelidin-treated U2OS cells.
Setting [6] is: Enzyme activity for compounds of Formula IV, Ki(app), 25° C.

Where two headings read alike, the source gives them in different places.

Chain of intracellular GCN2 (phosphorylation of the GCN2 substrate eIF2α) (Q9P2K8 whole entry): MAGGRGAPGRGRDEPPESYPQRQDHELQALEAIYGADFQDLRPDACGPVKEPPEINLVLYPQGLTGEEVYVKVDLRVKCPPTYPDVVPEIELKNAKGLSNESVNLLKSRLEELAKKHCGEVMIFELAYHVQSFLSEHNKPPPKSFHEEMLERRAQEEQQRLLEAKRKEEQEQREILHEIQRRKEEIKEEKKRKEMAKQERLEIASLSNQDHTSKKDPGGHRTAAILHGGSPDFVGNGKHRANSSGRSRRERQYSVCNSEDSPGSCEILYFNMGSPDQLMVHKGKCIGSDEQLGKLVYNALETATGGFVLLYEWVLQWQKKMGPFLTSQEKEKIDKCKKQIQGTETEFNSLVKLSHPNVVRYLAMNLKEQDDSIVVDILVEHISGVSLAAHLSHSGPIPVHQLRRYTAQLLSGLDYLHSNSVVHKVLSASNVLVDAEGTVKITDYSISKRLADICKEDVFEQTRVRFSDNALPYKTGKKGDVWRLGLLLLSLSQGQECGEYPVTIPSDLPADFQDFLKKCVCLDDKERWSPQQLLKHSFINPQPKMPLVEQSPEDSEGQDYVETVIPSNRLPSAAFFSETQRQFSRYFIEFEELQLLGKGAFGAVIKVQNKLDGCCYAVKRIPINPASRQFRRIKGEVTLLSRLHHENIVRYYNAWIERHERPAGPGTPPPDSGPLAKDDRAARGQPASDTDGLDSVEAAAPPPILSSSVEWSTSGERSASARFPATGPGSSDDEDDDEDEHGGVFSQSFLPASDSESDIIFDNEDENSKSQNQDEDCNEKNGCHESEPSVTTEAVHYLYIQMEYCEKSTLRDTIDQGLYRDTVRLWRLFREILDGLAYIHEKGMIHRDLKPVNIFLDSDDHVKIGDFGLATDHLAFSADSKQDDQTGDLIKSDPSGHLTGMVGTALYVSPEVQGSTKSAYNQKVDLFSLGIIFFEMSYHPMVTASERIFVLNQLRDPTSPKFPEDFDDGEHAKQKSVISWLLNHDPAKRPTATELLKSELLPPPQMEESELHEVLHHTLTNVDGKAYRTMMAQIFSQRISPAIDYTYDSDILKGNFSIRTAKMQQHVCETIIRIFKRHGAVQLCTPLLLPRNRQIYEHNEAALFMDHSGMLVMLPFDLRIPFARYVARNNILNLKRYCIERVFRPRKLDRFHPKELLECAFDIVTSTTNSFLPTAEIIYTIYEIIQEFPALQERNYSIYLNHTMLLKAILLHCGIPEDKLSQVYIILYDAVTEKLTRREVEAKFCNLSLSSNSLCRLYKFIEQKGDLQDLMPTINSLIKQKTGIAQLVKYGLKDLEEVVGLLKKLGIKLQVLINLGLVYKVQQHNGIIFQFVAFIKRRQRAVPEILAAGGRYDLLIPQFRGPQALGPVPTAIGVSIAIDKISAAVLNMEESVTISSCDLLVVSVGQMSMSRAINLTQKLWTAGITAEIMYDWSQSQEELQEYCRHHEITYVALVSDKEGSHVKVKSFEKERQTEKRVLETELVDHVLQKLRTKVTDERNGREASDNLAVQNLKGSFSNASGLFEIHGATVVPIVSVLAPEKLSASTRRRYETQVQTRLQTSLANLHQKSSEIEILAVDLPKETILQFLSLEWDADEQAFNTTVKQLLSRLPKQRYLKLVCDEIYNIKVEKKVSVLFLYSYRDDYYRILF
Chain of GCN2 kinase (Q9P2K8 whole entry): as above

On to `Cc1[nH]ncc1[C@@H]1CN(c2cc(-c3cnc4ccc(C(F)(F)F)nn34)ncn2)C[C@@H](C)O1` [II-766, (2R,6R)-2-methyl-6-(5-methyl-1H-pyrazol-4-yl)-4-(6-(6-(trifluoromethyl)imidazo[1,2-b]pyridazin-3-yl)pyrimidin-4-yl)morpholine], for which the IC50 (in general, the point on the concentration scale where inhibition reaches its midpoint) is over 5000 nM in test [1] (setting [2]) and 10 to 1000 nM against GCN2 kinase (4 nM GCN2 kinase).
Consider `Cc1[nH]ncc1[C@@H]1CN(c2cc(-c3cnc4ccc(C(F)(F)F)nn34)ncn2)C[C@H](C)O1` [II-767, (2S,6R)-2-methyl-6-(5-methyl-1H-pyrazol-4-yl)-4-(6-(6-(trifluoromethyl)imidazo[1,2-b]pyridazin-3-yl)pyrimidin-4-yl)morpholine], for which the IC50 in test [1] (setting [2]) was under 500 nM; on GCN2 kinase (4 nM GCN2 kinase), 10 to 1000 nM.
In the case of `C[C@H]1[C@H](CNS(C)(=O)=O)N(C2CC2)CCN1c1cc(-c2cnc3ccc(C(F)F)nn23)ncn1` [II-769, N-(((2S,3S)-1-cyclopropyl-4-(6-(6-(difluoromethyl)imidazo[1,2-b]pyridazin-3-yl)pyrimidin-4-yl)-3-methylpiperazin-2-yl)methyl)methanesulfonamide], the figures for the IC50 (in test [1] (setting [2]); at GCN2 kinase (4 nM GCN2 kinase)) were 500 to 5000 nM and 10 to 1000 nM, respectively.
Take `C[C@@H]1[C@@H](CNS(C)(=O)=O)N(C2CC2)CCN1c1cc(-c2cnc3ccc(C(F)F)nn23)ncn1` [II-770, N-(((2R,3R)-1-cyclopropyl-4-(6-(6-(difluoromethyl)imidazo[1,2-b]pyridazin-3-yl)pyrimidin-4-yl)-3-methylpiperazin-2-yl)methyl)methanesulfonamide]: the results for the IC50 (in test [1] (setting [2]); against GCN2 kinase (4 nM GCN2 kinase)) were 500 to 5000 nM and 10 to 1000 nM, respectively.
Regarding `CC(=O)N1CCN(c2cc(-c3cnn4ccc(C(F)F)nc34)ncn2)CC1` [III-1, 1-[4-[6-[5-(Difluoromethyl)pyrazolo[1,5-a]pyrimidin-3-yl]pyrimidin-4-yl]piperazin-1-yl]ethanone], the IC50 in test [1] (setting [3]) is over 5000 nM. In addition, the Ki at GCN2 kinase (setting [4]) is 10 to 1000 nM.
As to `CS(=O)(=O)NCC1CCCN(c2cc(-c3cnn4ccc(C(F)F)nc34)ncn2)C1` (stereo not drawn) [III-2, N-[[1-[6-[5-(Difluoromethyl)pyrazolo[1,5-a]pyrimidin-3-yl]pyrimidin-4-yl]-3-piperidyl]methyl]methanesulfonamide], in test [1] (setting [3]), the IC50 is under 500 nM. Besides, the Ki at GCN2 kinase (setting [4]) was under 10 nM.
On to `O=C1CCN(c2cc(-c3cnn4ccc(C(F)(F)F)nc34)ncn2)CCN1` [III-3, 1-[6-[5-(Trifluoromethyl)pyrazolo[1,5-a]pyrimidin-3-yl]pyrimidin-4-yl]-1,4-diazepan-5-one], for which the IC50 in test [1] (setting [3]) was over 5000 nM. In addition, at GCN2 kinase (setting [4]), the Ki was in the range of 10 to 1000 nM.
For `CS(=O)(=O)NC[C@@H]1CN(c2cc(-c3cnn4ccc(C(F)F)nc34)ncn2)CCO1` [III-4, N-[[(2S)-4-[6-[5-(Difluoromethyl)pyrazolo[1,5-a]pyrimidin-3-yl]pyrimidin-4-yl]morpholin-2-yl]methyl]methanesulfonamide], in that order: under 500 nM and under 10 nM.
Regarding `CS(=O)(=O)NC[C@H]1CN(c2cc(-c3cnn4cc(F)c(C(F)F)nc34)ncn2)CCO1` [III-5, N-[[(2R)-4-[6-[5-(Difluoromethyl)-6-fluoro-pyrazolo[1,5-a]pyrimidin-3-yl]pyrimidin-4-yl]morpholin-2-yl]methyl]methanesulfonamide], the IC50 in test [1] (setting [3]) is over 5000 nM. On GCN2 kinase (setting [4]), this compound yielded a Ki of 10 to 1000 nM.
Turning to `CS(=O)(=O)NC[C@@H]1CN(c2cc(-c3cnn4ccc(C(F)F)nc34)ccn2)CCO1` [III-6, N-[[(2S)-4-[4-[5-(Difluoromethyl)pyrazolo[1,5-a]pyrimidin-3-yl]-2-pyridyl]morpholin-2-yl]methyl]methanesulfonamide], in test [1] (setting [3]), the IC50 is 500 to 5000 nM. At GCN2 kinase (setting [4]), this compound returned a Ki of under 10 nM.
For `CC1CN(c2cc(-c3cnn4ccc(C(F)F)nc34)ccn2)CC(CNS(C)(=O)=O)C1(F)F` (stereo not drawn) [III-7, N-[[1-[4-[5-(Difluoromethyl)pyrazolo[1,5-a]pyrimidin-3-yl]-2-pyridyl]-4,4-difluoro-5-methyl-3-piperidyl]methyl]methanesulfonamide], in that order: 500 to 5000 nM and under 10 nM.
For `CS(=O)(=O)NC[C@@H]1CN(c2cc(-c3cnn4cc(F)c(C(F)F)nc34)ncn2)CCO1` [III-10, N-[[(2S)-4-[6-[5-(Difluoromethyl)-6-fluoro-pyrazolo[1,5-a]pyrimidin-3-yl]pyrimidin-4-yl]morpholin-2-yl]methyl]methanesulfonamide], the IC50 in test [1] (setting [3]) was under 500 nM. The Ki on GCN2 kinase (setting [4]) was under 10 nM.
`C[C@H]1CN(c2cc(-c3cnn4cc(F)c(C(F)F)nc34)ncn2)C[C@@H](CNS(C)(=O)=O)C1(F)F` [III-11, N-[[(3S,5S)-1-[6-[5-(Difluoromethyl)-6-fluoro-pyrazolo[1,5-a]pyrimidin-3-yl]pyrimidin-4-yl]-4,4-difluoro-5-methyl-3-piperidyl]methyl]methanesulfonamide]: the IC50 in test [1] (setting [3]) was under 500 nM. Also, the Ki at GCN2 kinase (setting [4]) is under 10 nM.
The like results for `C[C@H]1CN(c2cc(-c3cnn4ccc(C(F)F)nc34)ncn2)C[C@@H](CNS(C)(=O)=O)C1(F)F` [III-12, N-[[(3S,5S)-1-[6-[5-(Difluoromethyl)pyrazolo[1,5-a]pyrimidin-3-yl]pyrimidin-4-yl]-4,4-difluoro-5-methyl-3-piperidyl]methyl]methanesulfonamide] were, in that order, under 500 nM and under 10 nM.
`O=C1CCCC2CN(c3cc(-c4cnn5cccnc45)ccn3)CCN12` (stereo not drawn) [III-16, 2-(4-(pyrazolo[1,5-a]pyrimidin-3-yl)pyridin-2-yl)octahydro-6H-pyrido[1,2-a]pyrazin-6-one]: the IC50 in test [1] (setting [3]) was over 5000 nM. The compound further showed a Ki on GCN2 kinase (setting [4]) of over 1000 nM.
Compound `CC(=O)N1CCN(c2cccc(-c3cnc4cnccn34)n2)CC1` [IV-2, 1-(4-(6-(Imidazo[1,2-a]pyrazin-3-yl)pyridin-2-yl)piperazin-1-yl)ethan-1-one] returned an IC50 in test [1] (setting [5]) of over 5000 nM. The same compound gave a Ki on GCN2 kinase (setting [6]) of 100 to 1000 nM.
`FC(F)(F)c1cn2c(-c3nccc(N4CCOC(c5cn[nH]c5)C4)n3)cnc2cn1` (stereo not drawn) [IV-3, 2-(1H-Pyrazol-4-yl)-4-(2-(6-(trifluoromethyl)imidazo[1,2-a]pyrazin-3-yl)pyrimidin-4-yl)morpholine]: the IC50 in test [1] (setting [5]) is under 500 nM. On GCN2 kinase (setting [6]), this compound gave a Ki of under 10 nM.
The like results for `c1cc(N2CCOC(c3cn[nH]c3)C2)nc(-c2cnc3cnc(C4CC4)cn23)n1` (stereo not drawn) [IV-4, 4-(2-(6-Cyclopropylimidazo[1,2-a]pyrazin-3-yl)pyrimidin-4-yl)-2-(1H-pyrazol-4-yl)morpholine] were, in that order, 500 to 5000 nM and under 10 nM.
For `CC1CN(c2ccnc(-c3cnc4cnc(Cl)cn34)n2)CC(CNS(C)(=O)=O)C1(F)F` (stereo not drawn) [IV-5, N-((1-(2-(6-Chloroimidazo[1,2-a]pyrazin-3-yl)pyrimidin-4-yl)-4,4-difluoro-5-methylpiperidin-3-yl)methyl)methanesulfonamide], in that order: 500 to 5000 nM and 10 to 100 nM.
Take `Clc1cn2c(-c3nccc(N4CCOC(c5cn[nH]c5)C4)n3)cnc2cn1` (stereo not drawn) [IV-6, 4-(2-(6-Chloroimidazo[1,2-a]pyrazin-3-yl)pyrimidin-4-yl)-2-(1H-pyrazol-4-yl)morpholine]: the IC50 in test [1] (setting [5]) was under 500 nM. Moreover, the Ki at GCN2 kinase (setting [6]) was under 10 nM.
Take `CC1CN(c2ccnc(-c3cnc4cnc(C(F)(F)F)cn34)n2)CC(c2cn[nH]c2)O1` (stereo not drawn) [IV-10, 2-Methyl-6-(1H-pyrazol-4-yl)-4-(2-(6-(trifluoromethyl)imidazo[1,2-a]pyrazin-3-yl)pyrimidin-4-yl)morpholine]: in test [1] (setting [5]), the IC50 was under 500 nM. For the same compound, the Ki at GCN2 kinase (setting [6]) was under 10 nM.
As to `C[C@H]1CN(c2ccnc(-c3cnc4cnc(C(F)(F)F)cn34)n2)C[C@@H](CNS(C)(=O)=O)C1(F)F` [IV-17, N-(((3S,5S)-4,4-Difluoro-5-methyl-1-(2-(6-(trifluoromethyl)imidazo[1,2-a]pyrazin-3-yl)pyrimidin-4-yl)piperidin-3-yl)methyl)methanesulfonamide], the IC50 in test [1] (setting [5]) is over 5000 nM. At GCN2 kinase (setting [6]), the Ki was 100 to 1000 nM.
The like results for `N#Cc1cn2c(-c3nccc(N4CCOC(c5cn[nH]c5)C4)n3)cnc2cn1` (stereo not drawn) [IV-18, 3-(4-(2-(1H-Pyrazol-4-yl)morpholino)pyrimidin-2-yl)imidazo[1,2-a]pyrazine-6-carbonitrile] were, in that order, 500 to 5000 nM and under 10 nM.
`Brc1cn2c(-c3nccc(N4CCOC(c5cn[nH]c5)C4)n3)cnc2cn1` (stereo not drawn) [IV-19, 4-(2-(6-Bromoimidazo[1,2-a]pyrazin-3-yl)pyrimidin-4-yl)-2-(1H-pyrazol-4-yl)morpholine] yielded an IC50 in test [1] (setting [5]) of under 500 nM. At GCN2 kinase (setting [6]), this compound yielded a Ki of under 10 nM.
`Cc1cn2c(-c3nccc(N4CCOC(c5cn[nH]c5)C4)n3)cnc2cn1` (stereo not drawn) [IV-20, 4-(2-(6-Methylimidazo[1,2-a]pyrazin-3-yl)pyrimidin-4-yl)-2-(1H-pyrazol-4-yl)morpholine] registered an IC50 in test [1] (setting [5]) of 500 to 5000 nM. At GCN2 kinase (setting [6]), this compound had a Ki of 10 to 100 nM.
Compound `C[C@H]1CN(c2ccnc(-c3cnc4cnc(C(F)F)cn34)n2)C[C@@H](CNS(C)(=O)=O)C1(F)F` [IV-21, N-(((3S,5S)-1-(2-(6-(Difluoromethyl)imidazo[1,2-a]pyrazin-3-yl)pyrimidin-4-yl)-4,4-difluoro-5-methylpiperidin-3-yl)methyl)methanesulfonamide] displayed an IC50 in test [1] (setting [5]) of over 5000 nM. On GCN2 kinase (setting [6]), this compound returned a Ki of 100 to 1000 nM.
`CC(=O)N1CCN(c2ccnc(-c3cnc4cnc(C(F)F)cn34)n2)CC1` [IV-22, 1-(4-(2-(6-(Difluoromethyl)imidazo[1,2-a]pyrazin-3-yl)pyrimidin-4-yl)piperazin-1-yl)ethan-1-one]: in test [1] (setting [5]), the IC50 was over 5000 nM. Further, at GCN2 kinase (setting [6]), the Ki lay within 100 to 1000 nM.
